Ends that are not written are not given here. d = 2'-deoxy (DNA)
T1: PPARγ2 (Homo sapiens, UniProt P37231)
T1 construct: expressed in transfected cells; host or cells: 293T
T1 sequence (P37231 1-505): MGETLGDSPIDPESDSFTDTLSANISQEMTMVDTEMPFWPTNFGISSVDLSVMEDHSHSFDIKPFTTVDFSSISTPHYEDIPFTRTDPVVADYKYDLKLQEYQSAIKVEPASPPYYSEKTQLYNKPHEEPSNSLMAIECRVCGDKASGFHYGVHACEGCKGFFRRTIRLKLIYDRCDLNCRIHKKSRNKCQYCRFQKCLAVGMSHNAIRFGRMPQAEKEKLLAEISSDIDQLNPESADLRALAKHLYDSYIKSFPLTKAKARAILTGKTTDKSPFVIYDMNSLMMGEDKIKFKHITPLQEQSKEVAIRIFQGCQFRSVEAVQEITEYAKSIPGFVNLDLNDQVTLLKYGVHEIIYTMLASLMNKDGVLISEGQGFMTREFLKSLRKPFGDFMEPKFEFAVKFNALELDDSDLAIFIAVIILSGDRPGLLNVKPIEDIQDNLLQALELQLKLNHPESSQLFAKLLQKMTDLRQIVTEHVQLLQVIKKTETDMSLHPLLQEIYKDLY

B1: C domains of sLZIP: C-terminal deletion mutant of sLZIP (229-354) (protein)
chain: MYSSDTRGSLPAEHGVLSRQLRALPSEDPYQLELPALQSEVPKDSTHQWLDGSDCVLQAPGNTSCLLHYMPQAPSAEPPLEWPFPDLFSEPLCRGPILPLQANLTRKGGWLPTGSPSVILQDRYSG
modifications: left off: a dimerising Fc or GST

What was measured:
PPARγ2 [1] = molecular target: T1, PPARγ2; test: PPARγ2 transcriptional activity, FABP4-Luc luciferase reporter in transfected 293T cells; assay type: cell-based; conditions: for sLZIP-mediated PPARγ2 transcriptional activity: 100 nM si-RNA, with or without 10 nM RZD
Protocol: C3H10T1/2 and 293T cells were plated in a 12-well culture dish at a density of 2×10^5 cells/well and incubated for 24 hours. Then, according to instructions of the manufacturer, the cells were transfected with a 0.2 μg of reporter genes and 0.1 to 0.5 μg of a laboratory plasmid using Lipofectamine 2000 or Genefectine. After 24 hours, the cells were cultured in a serum-free DMEM with or without 10 nM of rosiglitazone. siRNAs were prepared using sLZIP and HDAC target sequences (Table 1). For an RNA interference experiment, according to instructions of the manufacturer, the cells were transfected with scrambled control group RNA and appropriate siRNAs using Lipofectamine 2000. Human MSC and C3H10T/1/2 cells were infected with an adenovirus vector containing cDNA of human sLZIP or an empty vector. The infected medium was exchanged with a fresh medium after two hours.
Appropriately transfected cells were washed with cold PBS twice, and a reporter lysis buffer (Promega) was used and lysed in a culture dish. Luciferase analysis was performed using a luciferase analysis system (Promega Corporation, Madison, Wis.). A luciferase activity was recorded in Luminometer 20/20^n (Turner BioSystems, Sunnyvale, Calif.) according to instructions of the manufacturer. The luciferase activity was normalized to a β-galactosidase activity. For β-galactosidase analysis, CMV-β-galactosidase was transfected with luciferase reporter genes. All pieces of data were represented as mean±standard deviation of the results from at least three independent experiments.
In order to examine an effect of sLZIP on the transcriptional activity of PPARγ2, 293T cells were temporarily transfected with PPARγ2 (0.5 μg), β-galactosidase (0.1 μg), FABP4-Luc reporter genes (0.2 μg) and sLZIP at different contents (0.1 to 0.5 μg). After the transfection, the cells were stimulated with or without 10 nM of rosiglitazone (RZD) (FIG. 1A), pioglitazone (PZD) (FIG. 1B), and troglitazone (TZD) (FIG. 1C). A relative luciferase activity was analyzed with or without cell ligand treatment 24 hours after transfection. Also, the 293T cells were transiently transfected with si-sLZIP at different contents (50 and 100 nM), and the cells were treated or not treated with RZD (FIG. 1D). FABP4-Luc stable C3H10T1/2 cells were infected with a sLZIP-expressing adenovirus, and then differentiated into adipocytes for 4 days (FIG. 1E). A luciferase activity was normalized to a β-galactosidase activity and represented as a relative activity (fold change). All experiments were repeated three times, and bars in the graph represent mean±standard deviation. *, P<0.05; **, P<0.01
For this purpose, 293T cells were transiently transfected with PPARγ2 (0.5 μg), β-galactosidase (0.1 μg), FABP4-Luc reporter genes (0.2 μg) and sLZIP (0.1 μg). After the transfection, the cells were stimulated with or without 10 nM of RZD and 10 nM of TSA (FIG. 4A). A promoter activity was measured according to luciferase analysis. In the 293T cells, FABP4-Luc reporter genes, sLZIP, PPAR, β-galactosidase, and 100 nM of si-RNAs and HDAC1, 2, 3 and 8 for a control group were expressed. After the transfection, the cells were stimulated with or without 10 nM of RZD, and a promoter activity was measured (FIG. 4B). 293T cells were temporarily transfected with FABP4-Luc reporter genes, PPARγ2, β-galactosidase, HDAC3 (0.5 μg) and sLZIP (0.1 μg). After the transfection, the cells were stimulated with or without 10 nM of RZD, and luciferase analysis was performed (FIG. 4C). A luciferase activity was normalized to a β-galactosidase activity and represented as a relative intensity (fold change). All experiments were repeated three times, and bars in the graph represent mean±standard deviation. GFP-sLZIP expression constructs were expressed in C3H10T1/2 cells, rabbit anti-HDAC3 antibodies and Texas Red-labeled anti-rabbit antibodies were used and analysis was performed under a fluorescence microscope. The nucleus was stained with DAPI (FIG. 4D). […]

PPARγ2 [2] = test: GST / His pull-down and immunoprecipitation of sLZIP with PPARγ2; assay type: binding; conditions: GST pull-down, transfected 293T cells
Protocol: 293T cells were obtained and washed with cold PBS. The cells were re-suspended in an IP lysis buffer [25 mM of Tris-HCl (pH 7.4), 150 mM of NaCl, 1 mM of EDTA, 1% NP-40 and 5% glycerol, and a protease inhibitor]. A suspension was centrifuged at 16,000×g for 20 minutes at 4° C. Supernatants were collected and incubated with 0.5 μg of appropriate antibodies and 25 μl of protein A/G-agarose or a GST Sepharose 4B bead for 24 hours at 4° C. A protein complex was centrifuged at 1,000×g with a cold IP lysis buffer for 1 minute and washed five times. The final pellet was re-suspended in 50 μl of an SDS-sample buffer containing 5% β-mercaptoethanol and heated for 10 minutes at 100° C. A protein sample was isolated in SDS-PAGE (8 to 10%) and transferred to nitrocellulose membranes. Co-precipitated proteins were detected according to western blotting using specific antibodies.
In order to examine whether the transcriptional activity of PPARγ2 is regulated by interaction with sLZIP, interaction between sLZIP and PPARγ2 was examined. For this purpose, 293T cells were transfected with GST-sLZIP and Myc-PPARγ2. Cell lysates were obtained and GST pull-down analysis was performed using a glutathione 4B bead. A protein complex was analyzed in SDS-PAGE and then immunoblotted with specific antibodies (FIG. 2A). The 293T cells were transfected with GST-PPARγ2 and Flag-sLZIP, and identified according to GST-pull-down analysis (FIG. 2B). PPARγ2 was translated in vitro by a TNT translation system (Promega). His-sLZIP proteins were expressed in BL21 cells using an IPTG-inducement system. Purified His-sLZIP proteins were subjected to His pull-down analysis. Proteins bound to the bead were analyzed in SDS-PAGE, and then immunoblotted with anti-PPARγ2 and anti-His antibodies (FIG. 2C). GFP-PPARγ2 and Flag-sLZIP constructs were expressed in C3H10T1/2 cells, and analyzed using mouse anti-Flag and Texas Red-labeled anti-mouse antibodies under a fluorescence microscope. The nucleus was stained with DAPI (FIG. 2D).
Activation of many nuclear receptors depends on a supplement of coactivators. Therefore, a domain of sLZIP necessary for binding with PPARγ2 was examined. For this purpose, 293T cells were transfected with GST-full length sLZIP (1-354), N-terminal deletion mutant sLZIP (1-228), C-terminal deletion mutant sLZIP (229-354), CC-terminal deletion mutant sLZIP (297-354) and PPARγ2. Cell lysates were obtained and GST pull-down analysis was performed using a glutathione 4B bead. A protein complex was analyzed in SDS-PAGE, and then immunoblotted with specific antibodies (FIG. 3A). 293T cells were transfected with Flag-full length PPARγ2, full length PPARγ2, N-terminal deletion mutant PPARγ2 (1-310), C-terminal deletion mutants PPARγ2 (139-505) and GST-sLZIP. Cell lysates were obtained and GST pull-down analysis was performed. A protein complex was analyzed in SDS-PAGE, and then immunoblotted with anti-GST and anti-Flag antibodies (FIG. 3B).
For this purpose, 293T cells were transfected with GST-PPARγ2 and Flag-sLZIP and were treated or not treated with 10 nM of RZD for 24 hours. Cell lysates were obtained and GST pull-down analysis (FIG. 5A) and immunoprecipitation (FIG. 5B) were performed using a glutathione 4B bead. A protein complex was analyzed in SDS-PAGE, and immunoblotted with anti-GST and anti-Flag antibodies. GST-PARγ2 and Flag-sLZIP were expressed in the 293T cells, and the cells were treated with 10 nM of RZD according to time of day. The cell lysates were GST pull-down analyzed (FIG. 5C). 293T cells were transfected with GST-HDAC3 and Flag-sLZIP, and treated or not treated with 10 nM of RZD for 24 hours. The cell lysates were GST pull-down analyzed (FIG. 5D). Flag-sLZIP was expressed in the 293T cells, and the cells were treated with 10 nM of RZD for 24 hours. Immunoprecipitation analysis of the cell lysates was performed using anti-NCoR1 antibodies. […]

Molecule	sLZIP-mediated PPARγ2 transcriptional activity (PPARγ2 [1])	further results
si-sLZIP: siRNA for sLZIP, SEQ ID NO: 5 and 6 (+dTdT) (chain 1 GGACCCAGAUGACUCCACAGCAUAU; chain 2 AUAUGCUGUGGAGUCAUCUGGGUCC; 3' dTdT, sugars by position and backbone not given here) [reference compound]		transcriptional activity of PPARγ2 (relative luciferase activity) (PPARγ2 [1]; si-sLZIP 50 and 100 nM, treated or not treated with RZD): increased the transcriptional activity of PPARγ2
siRNA for HDAC2: siRNA against HDAC2, SEQ ID NO: 9 and 10 (chain 1 GGUCAAUAAGACCAGAUAA; chain 2 UUAUCUGGUCUUAUUGACCG; 3' dTdT, sugars by position and backbone not given here) [reference compound]	not involved in sLZIP-mediated PPARγ2 regulation	
siRNA for HDAC8: siRNA against HDAC8, SEQ ID NO: 13 and 14 (chain 1 CAUUCAGGAUGGCAUACAA; chain 2 UUGUAUGCCAUCCUGAAUGGG; 3' dTdT, sugars by position and backbone not given here) [reference compound]	not involved in sLZIP-mediated PPARγ2 regulation	
HDAC3: siRNA used to knock down HDAC3, SEQ ID NO: 11 and 12 (chain 1 GCCGGUUAUCAACCAGGUA; chain 2 UACCUGGUUGAUAACCGGC; 3' dTdT, sugars by position and backbone not given here) [reference compound]	significantly increased	
CC domains of sLZIP: CC-terminal deletion mutant of sLZIP (297-354), contains proline-rich region (YMPQAPSAEPPLEWPFPDLFSEPLCRGPILPLQANLTRKGGWLPTGSPSVILQDRYSG; also: fused to dimerising Fc or GST)		interaction with PPARγ2 (PPARγ2 [2]): interacted with PPARγ2
siRNA for HDAC1: siRNA against HDAC1, SEQ ID NO: 7 and 8 (chain 1 CGACUGUUUGAGAACCUUA; chain 2 UAAGGUUCUCAAACAGUCGCU; 3' dTdT, sugars by position and backbone not given here) [reference compound]	not involved in sLZIP-mediated PPARγ2 regulation	
B1		interaction with PPARγ2 (PPARγ2 [2]): interacted with PPARγ2
